What follows are molecules tested against T1, androgen receptor (Homo sapiens, UniProt P10275) (assay: AR Antagonist Cell Assay (MMTV-luciferase reporter, DHT-induced)). Conditions: MDA-MB453-MMTV clone 54-19 cells, 100 pM DHT, 17 hr.
T1 sequence (P10275 1-920 Q868H): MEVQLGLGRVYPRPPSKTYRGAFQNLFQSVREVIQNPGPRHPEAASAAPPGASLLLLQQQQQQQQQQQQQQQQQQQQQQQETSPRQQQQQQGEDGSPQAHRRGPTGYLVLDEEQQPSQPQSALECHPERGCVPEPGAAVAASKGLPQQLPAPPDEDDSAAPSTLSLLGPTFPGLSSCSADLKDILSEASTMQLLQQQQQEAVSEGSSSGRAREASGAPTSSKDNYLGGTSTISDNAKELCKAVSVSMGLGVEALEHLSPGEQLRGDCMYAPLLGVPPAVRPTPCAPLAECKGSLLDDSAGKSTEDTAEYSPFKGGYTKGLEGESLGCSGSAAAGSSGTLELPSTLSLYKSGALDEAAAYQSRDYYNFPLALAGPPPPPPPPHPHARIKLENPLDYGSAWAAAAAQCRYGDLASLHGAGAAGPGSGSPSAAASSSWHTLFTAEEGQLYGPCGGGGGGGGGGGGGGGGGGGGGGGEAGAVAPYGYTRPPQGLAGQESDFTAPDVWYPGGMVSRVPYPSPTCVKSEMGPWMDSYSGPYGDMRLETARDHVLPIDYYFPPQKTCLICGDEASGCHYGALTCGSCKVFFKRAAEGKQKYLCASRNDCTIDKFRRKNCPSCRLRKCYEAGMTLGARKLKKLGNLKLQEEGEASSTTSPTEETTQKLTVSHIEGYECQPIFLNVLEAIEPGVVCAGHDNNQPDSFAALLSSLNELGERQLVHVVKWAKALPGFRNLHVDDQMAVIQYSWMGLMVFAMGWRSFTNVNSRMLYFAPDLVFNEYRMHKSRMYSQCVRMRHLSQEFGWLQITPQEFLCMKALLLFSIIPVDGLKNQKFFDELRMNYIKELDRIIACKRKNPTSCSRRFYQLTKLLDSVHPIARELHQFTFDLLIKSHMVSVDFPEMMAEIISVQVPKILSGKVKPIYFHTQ
Format: cell-based
Procedure, shortened: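 Stably transfected MDA-MB453 cells carrying an ARE-containing MMTV promoter–firefly luciferase reporter, pretreated 30 min with compound at 10 uM or 1 uM in 1% charcoal-treated serum medium. Then stimulated with 100 pM DHT for 17 hr at 37° C. and luminescence read; expressed as % inhibition of DHT-induced signal.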

IC50 | SMILES
1040 nM | CN(CCC#N)S(=O)(=O)c1ccc2[nH]c(=O)cc(C(F)(F)F)c2c1 [Example 77, 2-Oxo-4-trifluoromethyl-1,2-dihydroquinoline-6-sulfonic acid(2-cyanoethyl)methylamide]
150 nM | CN(CCc1ccccc1)S(=O)(=O)c1ccc2[nH]c(=O)cc(C(F)(F)F)c2c1 [Example 78, 2-Oxo-4-trifluoromethyl-1,2-dihydroquinoline-6-sulfonic acidmethylphenethylamide]
390 nM | CCN(Cc1ccccc1)S(=O)(=O)c1ccc2[nH]c(=O)cc(C(F)(F)F)c2c1 [Example 79, 2-Oxo-4-trifluoromethyl-1,2-dihydroquinoline-6-suifonic acidbenzylethylamide]
> 10000 nM | O=c1cc(C(F)(F)F)c2cc(S(=O)(=O)Nc3cccnc3)ccc2[nH]1 [Example 81, 2-Oxo-4-trifluoromethyl-1,2-dihydroquinoline-6-sulfonic acidpyridin-3-ylamide]
830 nM | Cc1cccc(NS(=O)(=O)c2ccc3[nH]c(=O)cc(C(F)(F)F)c3c2)c1 [Example 82, 2-Oxo-4-trifluoromethyl-1,2-dihydroquinoline-6-sulfonic acidm-tolylamide]
1140 nM | Cc1ccc(NS(=O)(=O)c2ccc3[nH]c(=O)cc(C(F)(F)F)c3c2)cc1 [Example 83, 2-Oxo-4-trifluoromethyl-1,2-dihydroquinoline-6-sulfonic acidp-tolylamide]
7080 nM | O=c1cc(C(F)(F)F)c2cc(S(=O)(=O)Nc3ccc(F)cc3)ccc2[nH]1 [Example 84, 2-Oxo-4-trifluoromethyl-1,2-dihydroquinoline-6-sulfonic acid(4-fluorophenyl)amide]
> 10000 nM | Cc1cc(NS(=O)(=O)c2ccc3[nH]c(=O)cc(C(F)(F)F)c3c2)n(C)n1 [Example 85, 2-Oxo-4-trifluoromethyl-1,2-dihydroquinoline-6-sulfonic acid(2,5-dimethyl-2H-pyrazol-3-yl)amide]
450 nM | C#Cc1ccc(NS(=O)(=O)c2ccc3[nH]c(=O)cc(C(F)(F)F)c3c2)cc1 [Example 86, 2-Oxo-4-trifluoromethyl-1,2-dihydroquinoline-6-sulfonic acid(4-ethynylphenyl)amide]
3550 nM | N#Cc1cccc(NS(=O)(=O)c2ccc3[nH]c(=O)cc(C(F)(F)F)c3c2)c1 [Example 87, 2-Oxo-4-trifluoromethyl-1,2-dihydroquinoline-6-sulfonic acid(3-cyanophenyl)amide]
130 nM | CCc1cccc(NS(=O)(=O)c2ccc3[nH]c(=O)cc(C(F)(F)F)c3c2)c1 [Example 88, 2-Oxo-4-trifluoromethyl-1,2-dihydroquinoline-6-sulfonic acid(3-ethylphenyl)amide]
360 nM | CCc1ccc(NS(=O)(=O)c2ccc3[nH]c(=O)cc(C(F)(F)F)c3c2)cc1 [Example 89, 2-Oxo-4-trifluoromethyl-1,2-dihydroquinoline-6-sulfonic acid(4-ethylphenyl)amide]
> 10000 nM | Cc1cccc(C)c1NS(=O)(=O)c1ccc2[nH]c(=O)cc(C(F)(F)F)c2c1 [Example 90, 2-Oxo-4-trifluoromethyl-1,2-dihydroquinoline-6-sulfonic acid(2,6-dimethylphenyl)amide]
3130 nM | O=c1cc(C(F)(F)F)c2cc(S(=O)(=O)Nc3cccc(CO)c3)ccc2[nH]1 [Example 91, 2-Oxo-4-trifluoromethyl-1,2-dihydroquinoline-6-sulfonic acid(3-hydroxymethylphenyl)amide]
> 10000 nM | COc1ccccc1NS(=O)(=O)c1ccc2[nH]c(=O)cc(C(F)(F)F)c2c1 [Example 92, 2-Oxo-4-trifluoromethyl-1,2-dihydroquinoline-6-sulfonic acid(2-methoxyphenyl)amide]
3460 nM | O=c1cc(C(F)(F)F)c2cc(S(=O)(=O)Nc3ccc4ncccc4c3)ccc2[nH]1 [Example 93, 2-Oxo-4-trifluoromethyl-1,2-dihydroquinoline-6-sulfonic acidquinolin-6-ylamide]

IC50 | SMILES
> 10000 nM | O=c1cc(C(F)(F)F)c2cc(S(=O)(=O)Nc3ccc(F)cc3F)ccc2[nH]1 [Example 94, 2-Oxo-4-trifluoromethyl-1,2-dihydroquinoline-6-sulfonic acid(2,4-difluorophenyl)amide]
840 nM | N#CCc1ccc(NS(=O)(=O)c2ccc3[nH]c(=O)cc(C(F)(F)F)c3c2)cc1 [Example 95, 2-Oxo-4-trifluoromethyl-1,2-dihydroquinoline-6-sulfonic acid(4-cyanomethylphenyl)amide]
140 nM | O=c1cc(C(F)(F)F)c2cc(S(=O)(=O)Nc3ccc4c(c3)CCC4)ccc2[nH]1 [Example 96, 2-Oxo-4-trifluoromethyl-1,2-dihydroquinoline-6-sulfonic acidindan-5-ylamide]
200 nM | CC(C)c1ccc(NS(=O)(=O)c2ccc3[nH]c(=O)cc(C(F)(F)F)c3c2)cc1 [Example 97, 2-Oxo-4-trifluoromethyl-1,2-dihydroquinoline-6-sulfonic acid(4-isopropylphenyl)amide]
> 10000 nM | O=c1cc(C(F)(F)F)c2cc(S(=O)(=O)Nc3ccc4c(c3)OCO4)ccc2[nH]1 [Example 98, 2-Oxo-4-trifluoromethyl-1,2-dihydroquinoline-6-sulfonic acidbenzo[1,3]dioxol-5-ylamide]
> 10000 nM | Cc1ccc(-c2ccccc2)cc1NS(=O)(=O)c1ccc2[nH]c(=O)cc(C(F)(F)F)c2c1 [Example 99, 2-Oxo-4-trifluoromethyl-1,2-dihydroquinoline-6-sulfonic acid(4-methylbiphenyl-3-yl)amide]
> 10000 nM | CC(O)c1cccc(NS(=O)(=O)c2ccc3[nH]c(=O)cc(C(F)(F)F)c3c2)c1 (stereo not drawn) [Example 100, 2-Oxo-4-trifluoromethyl-1,2-dihydroquinoline-6-sulfonic acid[3-(1-hydroxyethyl)phenyl]amide]
360 nM | CSc1cccc(NS(=O)(=O)c2ccc3[nH]c(=O)cc(C(F)(F)F)c3c2)c1 [Example 101, 2-Oxo-4-trifluoromethyl-1,2-dihydroquinoline-6-sulfonic acid(3-methylsulfanylphenyl)amide]
7860 nM | COc1ccc(OC)c(NS(=O)(=O)c2ccc3[nH]c(=O)cc(C(F)(F)F)c3c2)c1 [Example 102, 2-Oxo-4-trifluoromethyl-1,2-dihydroquinoline-6-sulfonic acid(2,5-dimethoxyphenyl)amide]
200 nM | COc1cc(NS(=O)(=O)c2ccc3[nH]c(=O)cc(C(F)(F)F)c3c2)cc(OC)c1 [Example 103, 2-Oxo-4-trifluoromethyl-1,2-dihydroquinoline-6-sulfonic acid(3,5-dimethoxyphenyl)amide]
> 10000 nM | Cn1nc(C(C)(C)C)cc1NS(=O)(=O)c1ccc2[nH]c(=O)cc(C(F)(F)F)c2c1 [Example 104, 2-Oxo-4-trifluoromethyl-1,2-dihydroquinoline-6-sulfonic acid(5-tert-butyl-2-methyl-2H-pyrazol-3-yl)amide]
450 nM | CC(C)Oc1cccc(NS(=O)(=O)c2ccc3[nH]c(=O)cc(C(F)(F)F)c3c2)c1 [Example 105, 2-Oxo-4-trifluoromethyl-1,2-dihydroquinoline-6-sulfonic acid(3-isopropoxyphenyl)amide]
260 nM | O=c1cc(C(F)(F)F)c2cc(S(=O)(=O)Nc3cccc(OC(F)F)c3)ccc2[nH]1 [Example 106, 2-Oxo-4-trifluoromethyl-1,2-dihydroquinoline-6-sulfonic acid(3-difluoromethoxyphenyl)amide]
> 10000 nM | Cc1cc2c(NS(=O)(=O)c3ccc4[nH]c(=O)cc(C(F)(F)F)c4c3)cccc2nn1 [Example 108, 2-Oxo-4-trifluoromethyl-1,2-dihydroquinoline-6-sulfonic acid(3-methylcinnolin-5-yl)amide]
210 nM | O=c1cc(C(F)(F)F)c2cc(S(=O)(=O)Nc3cccc(C(F)(F)F)c3)ccc2[nH]1 [Example 109, 2-Oxo-4-trifluoromethyl-1,2-dihydroquinoline-6-sulfonic acid(3-trifluoromethylphenyl)amide]

SMILES | IC50
CCCCN(C)S(=O)(=O)c1ccc2[nH]c(=O)cc(C(F)(F)F)c2c1 [Example 76, 2-Oxo-4-trifluoromethyl-1,2-dihydroquinoline-6-sulfonic acidbutylmethylamide] | 210 nM
COCCN(CCOC)S(=O)(=O)c1ccc2[nH]c(=O)cc(C(F)(F)F)c2c1 [Example 80, 2-Oxo-4-trifluoromethyl-1,2-dihydroquinoline-6-sulfonic acidbis(2-methoxyethyl)amide] | > 10000 nM
